Values quoted from earlier work, collected in patent US20190320628A1, “A NON-HUMAN ANIMAL MODEL OF NEURODEGENERATIVE DISORDERS” (priority 2016, published 2019).

Legend:
animals = conditions: KA used to model human epilepsy, SE/cSE-based models
rats = conditions: initial KA dose 5 mg/kg i.p., subsequent doses tailored
Wistar rats = conditions: KA alone

C=C(C)[C@H]1CN[C@H](C(=O)O)[C@H]1CC(=O)O [KA, kainic acid]
Mortality (animals): up to 50%
Non-responders (surviving animals that never exhibit spontaneous seizures) (animals): up to 50%
Mortality rate (rats): around 15%
Non-responders among the surviving animals (Wistar rats): 20-40%
Mortality (Wistar rats; SE terminated by diazepam): up to 30%
